Patent US20230310388A1, “Methods and Compositions for Treating Fungal Infections” (Neoculi Pty Ltd, priority 2020, published 2023)
Values joined by “and” are separate entries in the source; they are usually repeats but may differ in a detail not shown here. Identical values can stand only once.

Experiments:
C. albicans = assay: Fluconazole MIC given as descriptor of azole resistant clinical isolates (Table 10); format: cell-based; details: Candida albicans
Candida albicans [1] = assay: CLSI broth microdilution MIC (Example 3); format: cell-based
Experimental: (§1) Antifungal minimum inhibitory concentration (MIC) testing was undertaken as recommended by the CLSI. Briefly, antifungal susceptibility tests were performed for amphotericin B, robenidine (NCL812) and 5 robenidine analogs (NCL062, NCL195, NCL219, NCL259, NCL265) by standard broth microdilution method (CLSI) in RPMI 1640. Various concentrations (ranging from high to low) of the selected compounds were prepared in RPMI 1640 medium by double dilution in 96-well microtitre plates. Each well contained an inoculum of approximately 2×10^3 cells/mL. The wells without addition of drugs served as negative (no inoculum) and positive (inoculum only) growth controls. Microtitre plates were incubated at 35° C. for 24-48 hours. […] Antifungal MICs were determined for each isolate in duplicate; if the values obtained were different, the MIC test was repeated a third time. Antifungal susceptibility tests were performed for amphotericin B and NCL analogs by standard broth microdilution method (CLSI). Briefly, various concentrations (ranging from high to low) of the selected compounds were prepared in RPMI 1640 medium by double dilution in the 96-well plates. Each well contained an inoculum of approximately 2×10^3 cells/mL. The wells without addition of drugs served as a negative control. Micro plates were incubated at 35° C. for 48 hour and read spectrophotometrically at 600 nm, using a microplate reader (Multiskan-EX; Thermo Elect. Corp., USA).

Candida parapsilosis = assay: CLSI broth microdilution MIC (Example 3); format: cell-based; details: Candida parapsilosis ATCC 22019
Experimental: as §1

Candida albicans [2] = assay: CLSI broth microdilution MIC (Example 4); format: cell-based; details: for antifungal activity against the two isolates of Candida albicans: summary in words
Procedure, shortened: (§2)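 CLSI broth microdilution in RPMI 1640 with two-fold compound dilutions and inoculum about 2×10^3 cells/mL. Plates incubated 35° C for 24-48 hours; MICs determined in duplicate, with a third test when the duplicates differed.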

Cryptococcus neoformans [3] = assay: CLSI broth microdilution MIC (Example 4); format: cell-based
Procedure, shortened: as §2

Candida albicans [4] = assay: CLSI broth microdilution MIC (Example 5); format: cell-based; details: for activity against one or more isolates of Cryptococcus neoformans and Candida albicans: summary in words
Experimental: (§3) Antifungal minimum inhibitory concentration (MIC) testing was undertaken as recommended by the CLSI. Briefly, antifungal susceptibility tests were performed for amphotericin B, robenidine (NCL812) and robenidine analogs (NCL23, NCL24, NCL97, NCL113, NCL115, NCL195, NCL219, NCL220, NCL259, NCL265) by standard broth microdilution method (CLSI) in RPMI 1640. Various concentrations (ranging from high to low) of the selected compounds were prepared in RPMI 1640 medium by double dilution in 96-well microtitre plates. Each well contained an inoculum of approximately 2×10^3 cells/mL. The wells without addition of drugs served as negative (no inoculum) and positive (inoculum only) growth controls. Microtitre plates were incubated at 35° C. for 24-48 hours. […] Antifungal MICs were determined for each isolate in duplicate; if the values obtained were different, the MIC test was repeated a third time.

Cryptococcus neoformans [5] = assay: CLSI broth microdilution MIC (Example 5); format: cell-based
Experimental: as §3

Candida albicans [6] = assay: CLSI broth microdilution MIC (Example 6); format: cell-based
Experimental: (§4) Antifungal minimum inhibitory concentration (MIC) testing was undertaken as recommended by the CLSI (1). Briefly, antifungal susceptibility tests were performed for amphotericin B, robenidine (NCL812) and 10 robenidine analogs (NCL023, NCL024, NCL097, NCL113, NCL115, NCL195, NCL219, NCL220, NCL259, NCL265) by standard broth microdilution method (CLSI) in RPMI 1640. Various concentrations (ranging from high to low) of the selected compounds were prepared in RPMI 1640 medium by double dilution in 96-well microtitre plates. Each well contained an inoculum of approximately 2×10^3 cells/mL. The wells without addition of drugs served as negative (no inoculum) and positive (inoculum only) growth controls. Microtitre plates were incubated at 35° C. for 24-48 hours. […] Antifungal MICs were determined for each isolate in duplicate; if the values obtained were different, the MIC test was repeated a third time.

Cryptococcus neoformans [7] = assay: CLSI broth microdilution MIC (Example 6); format: cell-based
Experimental: as §4

C. gattii = assay: CLSI broth microdilution MIC (Example 6); format: cell-based, Cryptococcus gattii
Experimental: as §4

[8] = test system: Candida albicans ATCC14053; assay: Broth micro-dilution screen at 16 μg/mL and MIC (Example 9); format: cell-based; details: for MIC: C. albicans ATCC14053, test range 0.25-64 μg/mL, duplicate; for Screen at 16 μg/mL: single concentration 16 μg/mL, Growth or No growth of C. albicans ATCC14053
Experimental: The antifungal activity of 201 NCL analogs against Candida albicans ATCC14053 in vitro was investigated. A broth micro-dilution method was used, according to CLSI guidelines as described. NCL analogs were dissolved in DMSO and originally screened at a single concentration of 16 μg/mL.

[9] = Candida albicans ATCC 90028, 1st
[10] = Candida albicans ATCC 90028, 2nd
[11] = clinical isolate C. albicans 12-93301752 Azole Resistant
[12] = clinical isolate C. albicans 14-90045999 Azole Resistant
[13] = clinical isolate C. albicans 15-45171061
[14] = clinical isolate C. albicans 15-91329871
[15] = clinical isolate C. albicans 16-24136919 Azole Resistant
[16] = clinical isolate C. albicans 16-46177400
[17] = clinical isolate C. albicans 16-90050810
[18] = clinical isolate C. albicans 16-90054237
[19] = clinical isolate C. albicans 18-144-00196
[20] = clinical isolate C. albicans 18-148-08188 Azole Resistant
[21] = human clinical isolate C. neoformans serotype A/D hybrid
[22] = human clinical isolate C. neoformans var grubii 16-90050434
[23] = human clinical isolate C. neoformans var grubii 17-90028233
[24] = human clinical isolate C. neoformans var grubii 17-93996464
[25] = human clinical isolate C. neoformans var grubii 17-93996964
[26] = human clinical isolate C. gatti 17-90232099
[27] = human clinical isolate C. gattii 16-90050373
[28] = human clinical isolate C. gattii 17-90028211
[29] = human clinical isolate C. gattii 17-90028217
[30] = human clinical isolate C. gattii 17-90028242

OC(Cn1cncn1)(Cn1cncn1)c1ccc(F)cc1F [Fluconazole]
64 µg/mL: MIC (C. albicans; C. albicans 14-90045999 Azole Resistant)
32 µg/mL: MIC (C. albicans; C. albicans 12-93301752 Azole Resistant)
256 µg/mL: MIC (C. albicans; C. albicans 16-24136919 Azole Resistant)
8 µg/mL: MIC (C. albicans; C. albicans 18-148-08188 Azole Resistant)

[H]/N=C(\N)NN=C(CC1CCCCC1)c1ccc(Cl)cc1 [NCL259]
>16 µg/mL: MIC (Candida albicans [4]; [12]) | MIC (Candida albicans [4]; [14]) | MIC (Candida albicans [4]; [16]) | MIC (Candida albicans [4]; [17]) | MIC (Candida albicans [4]; [19]) | MIC (Candida albicans [4]; [20])
8 µg/mL: MIC (Candida albicans [1]; [10]) | MIC (Candida albicans [4]; [13]) | MIC (Candida albicans [4]; [15]) | MIC (Cryptococcus neoformans [7]; [21]) | MIC (Cryptococcus neoformans [7]; [22]) | MIC (Cryptococcus neoformans [7]; [23]) | MIC (Cryptococcus neoformans [7]; [25]) | MIC (C. gattii; [26]) | MIC (C. gattii; [27]) | MIC (C. gattii; [28]) | MIC (C. gattii; [30])
4 µg/mL: MIC (Candida albicans [1]; [9]) | MIC (Candida albicans [1]; Candida albicans, 1st) | MIC (Candida albicans [1]; Candida albicans, 2nd) | MIC (Candida parapsilosis; 1st) | MIC (Candida parapsilosis; 2nd)
8 µg/mL and 16 µg/mL: MIC (Cryptococcus neoformans [7]; [24]) | MIC (C. gattii; [29]) | MIC [8]
2 µg/mL: MIC at 24-48 hours (Cryptococcus neoformans [3]; Cryptococcus neoformans SA1) | MIC at 24-48 hours (Cryptococcus neoformans [3]; Cryptococcus neoformans SA2) | MIC (Cryptococcus neoformans [5]; Cryptococcus neoformans SA1) | MIC (Cryptococcus neoformans [5]; Cryptococcus neoformans SA2) | MIC (Cryptococcus neoformans [7]; Cryptococcus neoformans SA1) | MIC (Cryptococcus neoformans [7]; Cryptococcus neoformans SA2)
32 µg/mL: MIC (Candida albicans [4]; [18])
high antifungal activity: antifungal activity against the two isolates of Candida albicans (Candida albicans [2])
highly active: activity against one or more isolates of Cryptococcus neoformans and Candida albicans (Candida albicans [4])
No growth: Screen at 16 μg/mL [8]
16 µg/mL: MIC at 24-48 hours (Candida albicans [2]; Candida albicans ATCC 90028) | MIC at 24-48 hours (Candida albicans [2]; Candida albicans SA3) | MIC (Candida albicans [4]; C. albicans SA3) | MIC (Candida albicans [4]; Candida albicans ATCC 90028) | MIC (Candida albicans [4]; [11]) | MIC (Candida albicans [6]; C. albicans SA3) | MIC (Candida albicans [6]; Candida albicans ATCC 90028)

[H]/N=C(\N)NN=C(CCCCCC)c1ccc(Cl)cc1 [NCL265]
8 µg/mL: MIC at 24-48 hours (Candida albicans [2]; Candida albicans ATCC 90028) | MIC at 24-48 hours (Candida albicans [2]; Candida albicans SA3) | MIC (Candida albicans [4]; C. albicans SA3) | MIC (Candida albicans [4]; Candida albicans ATCC 90028) | MIC (Candida albicans [4]; [13]) | MIC (Candida albicans [6]; C. albicans SA3) | MIC (Candida albicans [6]; Candida albicans ATCC 90028) | MIC (Cryptococcus neoformans [7]; [21]) | MIC (Cryptococcus neoformans [7]; [23]) | MIC (Cryptococcus neoformans [7]; [24]) | MIC (Cryptococcus neoformans [7]; [25]) | MIC (C. gattii; [26]) | MIC (C. gattii; [27]) | MIC (C. gattii; [30])
16 µg/mL: MIC (Candida albicans [4]; [12]) | MIC (Candida albicans [4]; [14]) | MIC (Candida albicans [4]; [16]) | MIC (Candida albicans [4]; [17]) | MIC (Candida albicans [4]; [18]) | MIC (Candida albicans [4]; [20])
No growth: Screen at 16 μg/mL [8]
highly active: activity against one or more isolates of Cryptococcus neoformans and Candida albicans (Candida albicans [4])
4 µg/mL: MIC (Candida albicans [1]; Candida albicans, 2nd) | MIC (Candida albicans [4]; [15]) | MIC (Cryptococcus neoformans [7]; [22]) | MIC (C. gattii; [29])
2 µg/mL: MIC (Candida albicans [1]; [9]) | MIC (Candida albicans [1]; [10]) | MIC (Candida albicans [1]; Candida albicans, 1st) | MIC (Candida parapsilosis; 1st) | MIC (Candida parapsilosis; 2nd) | MIC (Candida albicans [4]; [11]) | MIC [8]
8 µg/mL and 16 µg/mL: MIC (C. gattii; [28])
>16 µg/mL: MIC (Candida albicans [4]; [19])
1 µg/mL: MIC at 24-48 hours (Cryptococcus neoformans [3]; Cryptococcus neoformans SA1) | MIC at 24-48 hours (Cryptococcus neoformans [3]; Cryptococcus neoformans SA2) | MIC (Cryptococcus neoformans [5]; Cryptococcus neoformans SA1) | MIC (Cryptococcus neoformans [5]; Cryptococcus neoformans SA2) | MIC (Cryptococcus neoformans [7]; Cryptococcus neoformans SA1) | MIC (Cryptococcus neoformans [7]; Cryptococcus neoformans SA2)
high antifungal activity: antifungal activity against the two isolates of Candida albicans (Candida albicans [2])
